Laboratory results from patent publication US7652015B2, “Kinase inhibitors” (Eli Lilly and Company, priority 2006, dated 2010).

Tests used:
[1] = Oral exposure in male Fischer 344 rats; assay type: in vivo; details: rat, 1 mg/kg, fasted, gavage, suspension 1 mg/mL at 1 mL/kg, plasma
Procedure: Compounds are screened for oral exposure in male Fischer 344 rats. Animals are fasted overnight and administered test compounds prepared as suspensions in sodium carboxymethylcellulose (1% w/v) containing Tween 80 (0.25% v/v) and antifoam (0.1% w/v). Dose suspensions are prepared at 1 mg/mL and administered at 1 mL/kg by gavage. Blood samples are taken between 0.5 h and 7 h after dose administration and plasma are prepared by centrifugation. Plasma samples are analyzed using online solid phase extraction and LC/MS/MS.

Phospho-MAPKAPK2 = test: Anisomycin-stimulated mice ex-vivo phospho-MAPKAPK2 inhibition assay by flow cytometry; assay type: in vivo; details: female Balb/c mice, po, blood after 2 hours, ex vivo 10 μg/ml anisomycin, CD11b+Ly6G- cells
Procedure: Female Balb/c mice with 8-10 week-old age are purchased from Taconic Inc. and dosed po with 0.2 mL volume of compounds at the concentrations of 30, 10, 3, 1 mg/kg. Blood is obtained from cardiac puncture after 2 hours or other indicated time periods and collected in EDTA-containing tubes. 100 μL of blood is incubated at 37° C. for 10 minutes. Whole blood is then mixed with FITC-conjugated rat anti-mouse Ly-6G mAb (1:250) and APC-conjugated rat anti-mouse CD11b mAb (1:100) and stimulated with 10 μg/ml anisomycin. Both cell surface antigen staining and anisomycin stimulation is conducted at 37° C. for 15 min and followed up with Lyse/Fix buffer (BD Biosciences, Cat#558049) for 10 min at room temperature. Lysed blood samples are spun down at 600×g for 8 minutes at room temperature with additional wash once by 4 mL PBS. 200 μL of diluted anti-Phospho-MAPKAPK-2 (Thr334) antibody (1:100 dilution) (Cell Signaling, Cat#3041) and mouse BD Fc Block (1:100 dilution) (BD Biosciences, 553141) in permeabilization Medium B (Caltag, Catg GAS002S-5) are added into blood cells and incubate at room temperature for 30 minutes. After the incubation, 3 mL of stain/wash buffer is added and cells are spanned down as described above with additional wash with 3 ml stain/wash buffer. […] Mean fluorescence of phosphono-MapKap-K2 staining is measured on gated CD11b+Ly6G-cells. […]

TNFα = test: Inhibition of TNFα in vivo, LPS challenged mice, plasma ELISA; details: female Balb/c mice, p.o., LPS IP 400 μg/kg 1 hour after compound, plasma 1.5 hours after LPS
Procedure: Compounds are administered p.o. (30, 10, 3 and 1 mg/kg) to female Balb/c mice (6 mice/dose). 1 hour following compound administration at 4 doses (P.O. at volume of 0.1 mL/mouse; vehicle: 1% NaCMC/0.25% Tween-80 in water); mice are given an IP-injection of LPS at 400 μg/kg. 1.5 hours after LPS challenging, mice are anesthetized with isoflurane and blood is taken via cardiac puncture. TNFα-levels in the plasma are determined using ELISA kit from R&D Systems and dose response ED50 is determined.
The Threshold Minimum Effective Dose (TMED) 50 is the dose at which greater than or equal to 50% inhibition was achieved and statistically different from control/placebo.

[2] = system: collagen induced arthritis; test: Rat collagen induced arthritis efficacy model; assay type: in vivo; details: female Lewis rats, PO, bid for 14 days
Procedure: Female Lewis rats (≈190 g, Charles River Labs) are immunized with Bovine type II collagen (2 mg/mL) emulsified with an equal volume of adjuvant (aluminum hydroxide). are used. The rats are immunized with approximately […] of the emulsion intradermally on the back near the base of the tail. All animals are re-immunized 7 days later according to the same protocol. The rats begin to develop arthritis (characterized by swelling and redness of one or both ankles) from 12 to 14 days after the first immunization. The rats are equally distributed into five treatment groups at the first signs of arthritis and treatment is initiated with each rat dosed bid for 14 days.
Group 1 Vehicle (1% NaCarboxymethylcellulose+0.25% Tween 80) 1 mL, PO,
• Bid×14 days • Group 2 Test compound, 5 mg/kg, 1 mL, PO, Bid×14 • Group 3 Test compound, 15 mg/kg, 1 mL, PO, Bid×14 • Group 4 Test compound, 30 mg/kg, 1 mL, PO, Bid×14 • Group 5 Prednisolone 10 mg/kg, 1 mL, PO, qd×14 Ankle diameter is measured with calipers 5 days a week and recorded. Data is expressed as the area under the curve (AUC) generated from the composite inflammation scores and statistical analysis performed.

p-MAPKAPK2 = test: Inhibition of p-MAPKAPK2 in vitro, anisomycin-stimulated RAW 264.7 cells, ELISA; assay type: cell-based, murine; details: Mus musculus, RAW264.7, read-out: IC50, inhibition of p-MAPKAPK2 in vitro
Procedure: RAW 264.7 cells (a murine monocytic/macrophage line ATCC) are seeded at a density of 50,000 cells/well in 96-well plates with RPMI-1640 medium plus 10% fetal bovine serum (FBS) and allowed to settle and adhere to the bottom of the well for 48 hours. After reaching confluence, cells are treated for 2 hours with 10 serial dilutions of different compounds. A control compound is always included. After 2 hours, anisomicin (100 ug/ml) is added and cells are incubated for 30 minutes at 37° C. under a 5% CO2 atmosphere. Then, cells are fixed and treated with hydrogen peroxide in order to remove endogenous peroxidase. Finally, plates are blocked with FBS, washed, and an ELISA assay is carried out by using an antiphospho-MAPKAPK (Thr 334, Cell Signalling, Cat # 3041) antibody and ahP-Conjugated Secondary Antibody. This reaction is detected by using FEMTO (Pierce) which is an enhanced chemiluminiscent substrate ahP that results in rapid kinetic light output and high signal intensity.

Compound: CS(=O)(=O)O.Cc1ccc(-n2nc(C(C)(C)C)cc2NC(=O)Nc2ccc(N3CCN(C(=O)c4c(F)cccc4F)CC3)nc2C)cc1 [Example 5, 1-(5-tert-Butyl-2-p-tolyl-2H-pyrazol-3-yl)-3-{6-[4-(2,6-difluoro-benzoyl)-piperazin-1-yl]-2-methyl-pyridin-3-yl}-urea methanesulfonate]
- Cmax [1]: 9390 ng/mL
- AUC(0-t) ([1]; read-out: AUC(0-7h)): 36800 ng·h/mL
- TMED50, inhibition of p-MAPKAPK synthesis (Phospho-MAPKAPK2): 2.28 mg/kg
- TMED50, suppression of TNFα in vivo (TNFα): 2.24 mg/kg
- histology TMED 50 [2]: 5 mg/kg bid
- IC50 (p-MAPKAPK2): 4.5 nM
